Reference: BindingDB's records for doi:10.1021/jm0408316 (University of Genoa, 2005)
Counter-ions that a name gives are not always drawn.

Biological target: not listed separately
Test: Inhibition of benzylamine binding to Benzylamine oxidase of porcine serum

SMILES | IC50 [µM]
CC(C)(C)Sc1cncc(SC(C)(C)C)c1CN | 1.6
CCSc1cncc(SCC)c1CN | 0.13
NCc1c(OCCO)cncc1OCCO [2-{[4-(aminomethyl)-5-(2-hydroxyethoxy)pyridin-3-yl]oxy}ethanol dihydrochloride trihydrate] | 3.2
CNc1cncc(N(C)C)c1CN [4-(aminomethyl)-5-(dimethyl-lambda~5~-azanyl)-N-methylpyridin-3-amine dihydrochloride dihydrate] | 0.44
CCCNc1cncc(N(C)CCC)c1CN [4-(aminomethyl)-5-[methyl(propyl)-lambda~5~-azanyl]-N-propylpyridin-3-amine dihydrochloride] | 350
NCc1ccncc1N(C1CCCC1)C1CCCC1 [4-(aminomethyl)-N,N-dicyclopentylpyridin-3-amine dihydrochloride] | 100
NCc1ccncc1NCC1CCCCC1 [4-(aminomethyl)-N-(cyclohexylmethyl)pyridin-3-amine dihydrochloride hydrate] | 5.6
NCc1ccncc1NC1CCCCCC1 [4-(aminomethyl)-N-cycloheptylpyridin-3-amine dihydrochloride hydrate] | 79
NCc1ccncc1NC1CCCC1 [4-(aminomethyl)-N-cyclopentylpyridin-3-amine dihydrochloride] | 16
NCc1ccncc1NC1CC1 [4-(aminomethyl)-N-cyclopropylpyridin-3-amine dihydrochloride hydrate] | > 100
CCNc1cncc(N(C)CC)c1CN [4-(aminomethyl)-N-ethyl-5-[ethyl(methyl)-lambda~5~-azanyl]pyridin-3-amine dihydrochloride] | 0.02
CCNc1cnccc1CN [4-(aminomethyl)-N-ethylpyridin-3-amine dihydrochloride] | 2
CC(C)Nc1cncc(N(C)C(C)C)c1CN [4-(aminomethyl)-N-isopropyl-5-[isopropyl(methyl)-lambda~5~-azanyl]pyridin-3-amine dihydrochloride] | > 0.1
CC(C)Nc1cnccc1CN [4-(aminomethyl)-N-isopropylpyridin-3-amine dihydrochloride] | 100
CNc1cncc(NC)c1CN [4-(aminomethyl)-N-methyl-5-(methyl-lambda~5~-azanyl)pyridin-3-amine dihydrochloride] | 1.7
CNc1cnccc1CN [4-(aminomethyl)-N-methylpyridin-3-amine dihydrochloride] | 8
NCc1ccncc1N [4-(aminomethyl)pyridin-3-amine dihydrochloride] | 16
NCc1c(OCCCCO)cncc1OCCCCO [4-{[4-(aminomethyl)-5-(4-hydroxybutoxy)pyridin-3-yl]oxy}butan-1-ol dihydrochloride] | 0.15
CCOc1cncc(OCC)c1CN [(3,5-diethoxypyridin-4-yl)methylamine dihydrochloride] | 0.17
CNc1ccccc1CN [N-[2-(aminomethyl)phenyl]-N-methylamine dihydrochloride] | > 100
CCOc1cncc(OCc2ccccc2)c1CN [[3-(benzyloxy)-5-ethoxypyridin-4-yl]methylamine dihydrochloride] | 5

Biological target: Diamine oxidase (Sus scrofa)
Test: Inhibition of putrescine binding to against Diamine oxidase of porcine kidney

SMILES | IC50 [µM]
CC(C)(C)Sc1cncc(SC(C)(C)C)c1CN | > 1000
CNc1cncc(N(C)C)c1CN [4-(aminomethyl)-5-(dimethyl-lambda~5~-azanyl)-N-methylpyridin-3-amine dihydrochloride dihydrate] | 0.061
CC(C)Nc1cncc(N(C)C(C)C)c1CN [4-(aminomethyl)-N-isopropyl-5-[isopropyl(methyl)-lambda~5~-azanyl]pyridin-3-amine dihydrochloride] | 1
CNc1cncc(NC)c1CN [4-(aminomethyl)-N-methyl-5-(methyl-lambda~5~-azanyl)pyridin-3-amine dihydrochloride] | 0.12
